Legend:
α3β3γ2 GABAAR = target: T1, α3β3γ2 GABAAR (Rattus norvegicus, UniProt P18508+P20236); assay: Whole-cell patch-clamp, potentiation of GABA-evoked currents in transfected HEK293 cells; format: cell-based; details: α3GABAARs; GABA at EC10
T1 construct: expressed in transfected cells; host or cells: HEK293 cells (ATCC)
Source text: (§1) To ensure expression of the γ2 subunit (required for modulation of GABAAR currents by BDZs) in all recorded cells, cells were transfected with a plasmid expressing the γ2 subunit plus eGFP from an IRES (internal ribosome entry site) and only eGFP-positive cells were selected for recordings. The transfection mixture contained (in μg): […], 3 γ2/eGFP (used as a marker of successful transfection). Whole-cell patch-clamp recordings were made 18-36 hrs after transfection at room temperature (20-24° C.) and at a holding membrane potential of −60 mV. Recording electrodes were filled with solution containing (in mM): 120 CsCl, 10 EGTA (aminopolycarboxylic acid), 10 HEPES (4-(2-hydroxyethyl)-1-piperazineethanesulfonic acid, pH 7.40), 4 MgCl2, 0.5 GTP (guanosine-5′-triphosphate) and 2 ATP (adenosine triphosphate). The external solution contained (in mM): 150 NaCl, 10 KCl, 2.0 CaCl2, 1.0 MgCl2, 10 HEPES (pH 7.40), and 10 glucose. GABA was applied to the recorded cell using a manually controlled pulse (6-10 s) of a low sub-saturating GABA concentration (EC10). […] EC50 values and Hill coefficients (nH) were obtained from fits of normalized concentration-response curves to the equation: IGABA=Imax[GABA]nH/([GABA]nH+[EC50]nH). Imax was determined as the average maximal current elicited by saturating concentration of GABA (30 μM−3 mM, depending on the subunit composition).

[1] = test system: α1β2γ2, α2β3γ2, α3β3γ2 and α5β2γ2 GABAARs; assay: Whole-cell patch-clamp, results stated across several recombinant GABAAR subtypes; format: cell-based, rat; details: for Preference α2- versus α1GABAARs at low concentrations: low concentrations (<EC50); for Efficacy of potentiation of α2- versus α1GABAARs at saturating concentrations: saturating concentrations: 1 μM DZP, 20 μM CBZ, 20 μM NDMC; for Relative potentiation of subtypes at sub-saturating concentrations: sub-saturating concentrations (<EC50)
Source text: as §1

[2] = test system: T2, α1β2γ2, α2β3γ2, α3β3γ2 and α5β2γ2 GABAARs; assay: as above; format: cell-based, rat; details: up to 3 μM for DZP, up to 20 μM for CBZ and NDMC
T2 construct: EC50 of potentiation of GABAAR currents; other: range over all four receptor subtypes; GABA at EC10; fused on or other part: eGFP co-expressed from an IRES on the γ2 plasmid (not fused)
Source text: as §1

[3] = test system: T3, α1β2γ2, α2β3γ2, α3β3γ2 and α5β2γ2 GABAARs; assay: as above; format: cell-based, rat; details: α1-, α2- and α5-GABAARs together; GABA at EC10
T3 construct: rows headed: Potentiation of the other three α1-, α2-, and α5-GABAARs subtypes; other: α1-, α2- and α5-GABAARs together; GABA at EC1; fused on or other part: eGFP co-expressed from an IRES on the γ2 plasmid (not fused)
Source text: as §1

healthy volunteers = details: standard therapeutic doses; cited from earlier work
[4] = test system: α2 versus α1 receptor complexes; details: cited from earlier work
[5] = after a single oral dose of 20 or 30 mg of CBZ; cited from earlier work
α1β2γ2 GABAAR = target: T4, α1β2γ2 GABAAR (Rattus norvegicus, UniProt P18508+P62813); assay: Whole-cell patch-clamp, potentiation of GABA-evoked currents in transfected HEK293 cells; format: cell-based; details: α1GABAARs; GABA at EC10
T4 construct: expressed in transfected cells; host or cells: HEK293 cells (ATCC)
Source text: as §1

α2β3γ2 GABAAR = target: T5, α2β3γ2 GABAAR (Rattus norvegicus, UniProt P18508+P23576); assay: as above; format: cell-based
T5 construct: expressed in transfected cells; host or cells: HEK293 cells (ATCC)
Source text: as §1

α5β2γ2 GABAAR = target: T6, α5β2γ2 GABAAR (Rattus norvegicus, UniProt P18508+P19969); assay: as above; format: cell-based; details: α5GABAARs; GABA at EC10
T6 construct: expressed in transfected cells; host or cells: HEK293 cells (ATCC)
Source text: as §1

[6] = test system: CCI mice, paw withdrawal latency; assay: Heat hyperalgesia (Plantar Test) in chronic constriction injury (CCI) neuropathic pain model; format: in vivo
Description: (§2) Experiments were performed in wild-type mice (genetic background C57BL/6J or 129X1/SvJ), and in homozygous triple and quadruple (H→R) GABAAR point-mutated mice of the 129X1/SvJ background (Ralvenius et al., 2015, supra). Quadruple point-mutated mice were generated by cross breeding of single point-mutated mice (Crestani et al., 2002, PNAS, 99(13): 8980-8985; Low et al., 2000, Science 290(5489): 131-134; Rudolph et al., 1999, Nature, 401(6755): 796-800). Quadruple point mutated mice carry the H→R mutation in the α1, α2, α3, and α5 subunits that is in all α subunits that can form a high affinity BDZ binding site.
(§3) A chronic constriction injury (CCI) model was used. Unilateral constriction injury of the left sciatic nerve just proximal to the trifurcation was performed. Anesthesia was induced and maintained by 2% isoflurane, combined with oxygen (30%). The sciatic nerve was exposed at the mid-thigh level proximal to the sciatic trifurcation by blunt dissection through the biceps femoris muscle. […] Heat hyperalgesia and mechanical sensitization were assessed 7 days after surgery.
Paw withdrawal latencies upon exposure to a defined radiant heat stimulus were measured using a commercially available apparatus (Plantar Test, Ugo Basile, Comerio, Italy). […]

[7] = test system: CCI mice, paw withdrawal threshold; assay: Mechanical hyperalgesia (dynamic von Frey filaments) in CCI neuropathic pain model; format: in vivo
Description: as §2
as §3, with “muscle. […] of nerve were freed of adhering tissue and three chromic gut ligatures (4/0) (Ethicon) were loosely put around the nerve with about 1 mm spacing.” for “muscle.”
Mechanical sensitivity was assessed with dynamic von Frey filaments (IITC, Woodland Hills, Calif.). […]

mice, motor activity = assay: Motor activity (photocell interruptions); format: in vivo
[8] = NDMC pharmacokinetics after oral administration, dried blood spot sampling, LCMS-MS; format: in vivo, C57BL/6 mice
Description: Pharmacokinetic parameters of NDMC following oral administration in C57BL/6 mice were determined and allowed to test whether antihyperalgesia after NDMC administration was mediated by NDMC itself and not by a down-stream metabolite.
Pharmacokinetic properties of NDMC were evaluated using the dried blood spot sampling method. This technique allows collecting multiple bleeds from the same animal over a large time window (Deglon et al., 2011, Pharm. Biomed. Analysis, 54(2): 359-367). Four μl of whole blood were collected and spotted onto a filter paper card from Whatman (Dassel, Germany) at different time points between 0 and 48 h after NDMC administration. NDMC concentration measurements were performed using a fully validated LCMS-MS (liquid chromatography—mass spectrometry or HPLC) method. Pharmacokinetic parameters were estimated by a noncompartmental method using WinNonlin® version 5.2 (Pharsight, Mountainview, Calif., USA).
Blood NDMC concentrations were measured with HPLC following single oral doses of 3, 10 and 30 mg kg^−1 in three mice per group (FIG. 5). Maximal blood levels of NDMC were reached within 2-3 hrs.

[9] = test system: α2GABAAR-mediated antihyperalgesia; details: GABAAR α1 (H→R) point-mutated mice
Description: To avoid confounding effects of anxiolysis in sedation experiments, and of sedation on antihyperalgesia experiments triple point-mutated mice were used. Sedation was assessed in triple (H→R) point-mutated mice, in which all GABAARs except α1 had been rendered BDZ-insensitive. Conversely, antihyperalgesia was studied in GABAAR α1 (H→R) point-mutated mice to rule out confounding sedation.

[10] = test system: α1GABAAR-mediated sedation; assay: Dose dependence of sedation in triple (H→R) point-mutated mice; details: all GABAARs except α1 BDZ-insensitive
Description: Mice (C57BL/6J or 129X1/SvJ) were tested during the light phase of the day-night cycle. […] Motor activity expressed as the total number of photocell interruptions was recorded for 6 h.

α2GABAAR = α2GABAAR (Mus musculus, UniProt P22723+P26048); details: full agonist; cited from earlier work
[11] = quadruple point-mutated mice, 30 mg kg^−1
[12] = single oral doses of 3, 10 and 30 mg kg^−1

T1 sequence (P20236 29-493): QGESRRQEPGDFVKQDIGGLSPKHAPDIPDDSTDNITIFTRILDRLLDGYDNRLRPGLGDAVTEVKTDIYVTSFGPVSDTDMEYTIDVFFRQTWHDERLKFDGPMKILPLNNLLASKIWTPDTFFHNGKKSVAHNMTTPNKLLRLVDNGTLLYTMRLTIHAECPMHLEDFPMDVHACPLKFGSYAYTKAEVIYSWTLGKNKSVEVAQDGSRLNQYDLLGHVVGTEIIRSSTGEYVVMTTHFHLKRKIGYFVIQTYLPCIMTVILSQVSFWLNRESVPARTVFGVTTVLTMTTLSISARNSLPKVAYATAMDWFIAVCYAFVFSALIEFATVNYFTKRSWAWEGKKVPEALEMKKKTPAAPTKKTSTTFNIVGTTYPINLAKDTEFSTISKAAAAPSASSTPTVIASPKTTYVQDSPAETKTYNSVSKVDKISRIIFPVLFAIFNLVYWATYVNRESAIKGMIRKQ
T1 sequence (P63079 26-473 partner): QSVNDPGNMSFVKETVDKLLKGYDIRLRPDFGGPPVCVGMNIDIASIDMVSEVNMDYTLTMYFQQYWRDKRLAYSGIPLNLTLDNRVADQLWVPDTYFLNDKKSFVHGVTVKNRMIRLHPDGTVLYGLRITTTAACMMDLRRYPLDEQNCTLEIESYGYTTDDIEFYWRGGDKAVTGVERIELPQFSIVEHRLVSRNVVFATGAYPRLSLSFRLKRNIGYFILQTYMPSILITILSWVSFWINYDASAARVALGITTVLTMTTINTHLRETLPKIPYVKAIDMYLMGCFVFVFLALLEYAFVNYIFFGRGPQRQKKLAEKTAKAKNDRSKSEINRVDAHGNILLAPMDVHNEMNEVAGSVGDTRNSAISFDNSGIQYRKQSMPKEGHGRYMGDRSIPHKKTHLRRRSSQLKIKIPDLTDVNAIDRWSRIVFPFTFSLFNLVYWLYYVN
T1 sequence (P18508 39-466): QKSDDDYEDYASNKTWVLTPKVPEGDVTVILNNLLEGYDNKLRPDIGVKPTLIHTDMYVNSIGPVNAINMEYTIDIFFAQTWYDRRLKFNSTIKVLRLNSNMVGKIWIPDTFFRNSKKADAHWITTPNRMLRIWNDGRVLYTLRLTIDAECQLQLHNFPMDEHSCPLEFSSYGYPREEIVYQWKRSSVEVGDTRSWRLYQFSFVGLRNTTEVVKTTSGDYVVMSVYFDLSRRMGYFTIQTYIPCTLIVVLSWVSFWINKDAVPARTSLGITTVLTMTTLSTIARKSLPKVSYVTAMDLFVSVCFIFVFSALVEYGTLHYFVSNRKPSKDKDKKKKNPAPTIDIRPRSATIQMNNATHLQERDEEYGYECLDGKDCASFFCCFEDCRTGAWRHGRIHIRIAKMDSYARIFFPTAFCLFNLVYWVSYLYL
T5 sequence (P23576 29-451): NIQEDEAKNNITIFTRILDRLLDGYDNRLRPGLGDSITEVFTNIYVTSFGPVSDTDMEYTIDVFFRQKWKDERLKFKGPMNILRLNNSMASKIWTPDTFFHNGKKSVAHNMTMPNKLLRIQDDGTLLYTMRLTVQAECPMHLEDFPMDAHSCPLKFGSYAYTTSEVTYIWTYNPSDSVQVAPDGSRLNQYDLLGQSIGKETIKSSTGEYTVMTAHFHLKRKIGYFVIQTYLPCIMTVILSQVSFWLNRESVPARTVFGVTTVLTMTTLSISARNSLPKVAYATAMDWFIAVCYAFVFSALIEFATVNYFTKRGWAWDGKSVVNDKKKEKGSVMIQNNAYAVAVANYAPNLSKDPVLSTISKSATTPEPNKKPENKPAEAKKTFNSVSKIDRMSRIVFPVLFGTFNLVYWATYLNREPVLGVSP
T5 sequence (P63079 26-473 partner): as the sequence (P63079 26-473 partner) above
T5 sequence (P18508 39-466): as the sequence (P18508 39-466) above
α2GABAAR, sequence (P26048 29-451): as the sequence (P23576 29-451) above, with S88L, P174A counted along it
α2GABAAR, sequence (P22723 39-474): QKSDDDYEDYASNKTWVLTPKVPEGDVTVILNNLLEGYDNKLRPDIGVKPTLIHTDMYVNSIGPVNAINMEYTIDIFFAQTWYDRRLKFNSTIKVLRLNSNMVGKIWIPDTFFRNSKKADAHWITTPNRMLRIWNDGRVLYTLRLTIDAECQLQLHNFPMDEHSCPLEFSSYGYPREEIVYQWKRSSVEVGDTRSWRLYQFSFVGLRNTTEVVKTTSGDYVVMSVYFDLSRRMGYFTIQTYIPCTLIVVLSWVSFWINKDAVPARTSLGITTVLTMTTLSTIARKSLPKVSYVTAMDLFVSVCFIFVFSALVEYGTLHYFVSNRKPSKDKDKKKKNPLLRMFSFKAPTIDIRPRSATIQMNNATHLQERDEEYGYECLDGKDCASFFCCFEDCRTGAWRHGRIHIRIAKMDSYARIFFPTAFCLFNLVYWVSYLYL
T6 sequence (P19969 32-464 limits assumed): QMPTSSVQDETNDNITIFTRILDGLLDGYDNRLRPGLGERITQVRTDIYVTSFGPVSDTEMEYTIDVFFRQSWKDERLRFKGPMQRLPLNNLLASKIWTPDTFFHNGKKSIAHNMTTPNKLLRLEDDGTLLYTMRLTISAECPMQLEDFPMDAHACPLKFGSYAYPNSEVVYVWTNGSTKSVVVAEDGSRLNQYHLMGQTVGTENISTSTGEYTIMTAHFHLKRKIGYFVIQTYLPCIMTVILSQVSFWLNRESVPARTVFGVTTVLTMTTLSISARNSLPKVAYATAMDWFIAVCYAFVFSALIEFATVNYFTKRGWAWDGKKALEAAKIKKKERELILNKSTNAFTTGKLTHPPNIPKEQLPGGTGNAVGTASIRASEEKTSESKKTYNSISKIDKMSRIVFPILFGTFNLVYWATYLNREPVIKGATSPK
T6 sequence (P63138 25-474 partner limits assumed): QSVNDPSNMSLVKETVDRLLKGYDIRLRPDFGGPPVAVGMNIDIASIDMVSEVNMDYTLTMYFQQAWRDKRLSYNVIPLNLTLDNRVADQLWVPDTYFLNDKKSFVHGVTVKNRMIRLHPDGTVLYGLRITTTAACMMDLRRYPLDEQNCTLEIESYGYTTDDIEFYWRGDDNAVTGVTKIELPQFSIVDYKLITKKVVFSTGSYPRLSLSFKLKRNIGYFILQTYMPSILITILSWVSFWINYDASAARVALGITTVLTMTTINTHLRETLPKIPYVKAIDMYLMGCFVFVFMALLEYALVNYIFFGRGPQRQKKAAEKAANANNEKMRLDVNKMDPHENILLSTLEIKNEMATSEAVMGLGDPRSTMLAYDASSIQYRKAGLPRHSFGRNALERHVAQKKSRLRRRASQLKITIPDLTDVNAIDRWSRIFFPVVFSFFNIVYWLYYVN
T6 sequence (P18508 39-466): as the sequence (P18508 39-466) above
T4 sequence (P62813 28-455): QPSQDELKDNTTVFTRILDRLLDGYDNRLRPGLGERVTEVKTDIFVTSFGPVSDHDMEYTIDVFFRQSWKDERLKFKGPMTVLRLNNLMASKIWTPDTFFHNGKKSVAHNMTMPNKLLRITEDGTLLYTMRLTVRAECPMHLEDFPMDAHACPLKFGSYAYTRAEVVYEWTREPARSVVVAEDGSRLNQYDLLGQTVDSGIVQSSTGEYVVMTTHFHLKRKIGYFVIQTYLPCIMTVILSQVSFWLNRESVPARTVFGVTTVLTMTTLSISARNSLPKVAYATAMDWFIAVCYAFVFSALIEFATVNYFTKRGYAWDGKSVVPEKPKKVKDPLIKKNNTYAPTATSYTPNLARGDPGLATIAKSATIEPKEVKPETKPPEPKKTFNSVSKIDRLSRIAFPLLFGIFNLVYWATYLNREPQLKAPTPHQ
T4 sequence (P63138 25-474 partner limits assumed): as the sequence (P63138 25-474 partner limits assumed) above
T4 sequence (P18508 39-466): as the sequence (P18508 39-466) above

Row | SMILES | Potentiation of currents (% increase upon application) (α3β3γ2 GABAAR) | Preference α2- versus α1GABAARs at low concentrations [1] | Efficacy of potentiation of α2- versus α1GABAARs at saturating concentrations [1] | Relative potentiation of subtypes at sub-saturating concentrations [1] | Direct activation of GABAAR currents [2] | Analgesic effect (healthy volunteers) | Binding affinity for α2 versus α1 receptor complexes [4] | ED50 antihyperalgesia [9] [mg/kg] | also measured
1 | CN1C(=O)CC(=O)N(c2ccccc2)c2cc(Cl)ccc21 [CBZ, clobazam] | about 300% | about similar effects on α2- and α1GABAARs | potentiated both GABAAR subtypes with similar efficacy | α1GABAAR mediated currents were potentiated similarly to α2-, α3- and α5-GABAARs mediated currents | did not directly activate GABAAR currents | weak analgesic effects | higher binding affinity for α2 versus α1 receptor complexes |  | Potentiation of the other three α1-, α2-, and α5-GABAARs subtypes [3]: about 150%; Half-life in human [5]: 23 to 24 h
2 | O=C1CC(=O)N(c2ccccc2)c2cc(Cl)ccc2N1 [NDMC, 8-Chloro-1-phenyl-1H-1,5-benzodiazepine-2,4(3H,5H)-dione] | 245% | preferred α2GABAARs across the entire concentration range tested | clearly favored α2-over α1GABAARs | highest for α2- followed by α3-, and lowest for α5- and α1-GABAARs mediated currents | did not directly activate GABAAR currents |  | a difference which is shared | 3.1 ± 0.9 | Potentiation of currents (% increase upon application) (α1β2γ2 GABAAR): 143%; Efficacy at α2β3γ2GABAARs compared with DZP (α2β3γ2 GABAAR): even stronger efficacy at α2β3γ2GABAARs than the full agonist DZP; Potentiation of currents (% increase upon application) (α2β3γ2 GABAAR; α2GABAARs, GABA at EC10): 253%; Potentiation of currents (% increase upon application) (α5β2γ2 GABAAR): 148%; α2/α1GABAAR selectivity ratio ([1]; compared among DZP, CBZ and NDMC): most favorable α2/α1GABAAR selectivity ratio; Reversal of thermal hypersensitivity (paw withdrawal latency) ([6]; C57BL/6J mice, injured paw, NDMC 3, 10, 30 mg/kg): dose-dependently reversed this hypersensitivity; Antihyperalgesic effect, heat hyperalgesia [6, 11]: completely lost its antihyperalgesic effects; Reversal of mechanical hypersensitivity (paw withdrawal threshold) ([7]; C57BL/6J mice, injured paw, NDMC 3, 10, 30 mg/kg, compared to vehicle): dose-dependently reversed this hypersensitivity; Antihyperalgesic effect, mechanical hyperalgesia [7, 11]: completely lost its antihyperalgesic effects; Effect on locomotor activity (sedation) (mice, motor activity; 129X1/SvJ mice, all tested doses): did not cause any measurable reduction in locomotor activity; Effect on motor activity (sedation) (mice, motor activity; C57BL/6J mice, 3, 10, 30 mg/kg, recorded for 6 h): did not impair motor activity at any dose; half-life ([8]; C57BL/6, mouse, plasma, range over single oral doses of 3, 10 and 30 mg kg^−1): 4.6 to 5.6 h; Average maximum plasma concentration ([8]; single oral dose 3 mg kg^−1): 1.2 µg/mL; Average maximum plasma concentration ([8]; single oral dose 10 mg kg^−1): 1.9 µg/mL; Average maximum plasma concentration ([8]; single oral dose 30 mg kg^−1): 3.3 µg/mL; Time to average maximum plasma concentrations [8, 12]: about 2.5 hrs; Time to maximal blood levels [8, 12]: 2 to 3 h
3 | O=C1CN=C(c2ccccc2Cl)c2cc([N+](=O)[O-])ccc2N1 [clonazepam] |  |  |  |  |  | weak analgesic effects | no distinction of affinity between α2 and α1 receptor complexes |  | 
4 | CN1C(=O)CN=C(c2ccccc2)c2cc(Cl)ccc21 [DZP, diazepam] | 237% | favored α1GABAARs | potentiated both GABAAR subtypes with similar efficacy | α1GABAAR mediated currents were potentiated more strongly than α2-, α3- and α5-GABAARs mediated currents | did not directly activate GABAAR currents |  |  | 3.4 ± 1.3 | ED50 sedation [10]: 0.59 ± 0.08 mg/kg; α2GABAAR occupancy at which significant analgesia (>50% maximum possible effect) is achieved (α2GABAAR): about 70%
